From patent US10961233B2 (LIFEARC, priority 2016, dated 2021)

Experiments:
WT full length PAICS = WT full length PAICS (Homo sapiens (Human), UniProt P22234); test: Biochemical assay to measure PAICS activity (Transcreener ADP2 FI); details: SAICAR synthetase reaction, ADP detection, 30 min pre-incubation
Text: Biochemical Assay to Measure PAICS Activity
The biochemical assay was used to measure PAICS SAICAR synthetase-mediated conversion of CAIR, aspartic acid and ATP to SAICAR, ADP and inorganic phosphate (Pi), post-AIR/CAIR equilibration (see FIG. 3). This was achieved by detecting the ADP generated during the reaction, using Bellbrook Lab's Transcreener ADP^2 FI assay. An increase in the fluorescence intensity is directly proportional to the amount of PAICS activity.
The Transcreener ADP^2 FI assay is a homogeneous competitive displacement fluorescence intensity assay which uses direct immunodetection of ADP. Displacement of the tracer by ADP causes an increase in the fluorescence at excitation 590 nm and emission 617 nm (FIG. 3).
5 μl WT full length PAICS (final assay concentration, fac, 2.5 nM) in basic buffer, added to black, non-binding, 384-well plates (Corning #3575), columns 1 to 22. 5 μl basic buffer was added to columns 23+24 (negative control). PAICS stock at 31.9 μM from the PI's lab (Steve Firestine). Basic buffer contained 50 mM Tris-HCl pH8 and 0.5 mM EDTA, fac.
1 μl compound in 100% DMSO added per well, or 1 μl 100% DMSO to positive controls (columns 1+2) and negative controls (columns 23+24). Final assay top concentration of compound either 1 mM or 30-μM, serially diluted with half-log dilutions across the plate in duplicate (one 10-point concentration response curve across wells 3 to 12, another across 13 to 22). Compounds pre-incubated with PAICS enzyme for 30 mins at RT. 2 μl CAIR added (fac 10 μM) in basic buffer plus 25 mM MgCl2 and 50 mM KHCO3 fac to all wells. CAIR stock 50 mM from Steve Firestine's lab. 1 hr RT incubation for AIR-CAIR equilibration. NB: ˜50% CAIR is decarboxylated during equilibration therefore 5 μM remains for the synthetase reaction.
2 μl ATP/aspartic acid added (fac 30 μM/180 μM) in reaction buffer to all wells. 30 mins RT incubation for appropriate level of ATP turnover. Reaction buffer contained basic buffer plus 10 mM DTT, 0.01% BSA and 0.01% Brij 35, fac.
10 μl ADP detection reagent added to all wells (as per instructions, Transcreener ADP^2 FI kit, BellBrook Labs #3013-10K). Incubation for 1 h at RT to allow antibody equilibration. Fluorescence intensity determined using a Tecan Safire2 (excitation at 590 nm, emission at 617 nm).

[1] = test system: LM2 and MDA-MB-231 breast cancer cell lines; test: PAICS 2D cell proliferation assay (CellTiter-Glo viability, 72 h); format: cell-based; details: Homo sapiens; 72 h incubation; cell line not given
Procedure: PAICS 2D Cell Proliferation Assay
Frozen cryovial stocks of LM2 and MDA-MB-231 breast cancer cell lines were thawed and cultured in 4.5 g/L glucose DMEM (31966-047, Invitrogen) supplemented with 10% Fetal Bovine Serum (10500-064, Invitrogen) until confluent in a T175 flask. Cells were incubated at 37° C. with 5% CO2 in a humidified incubator.
Cells were collected from T175 flasks by washing with PBS (10010-056, Invitrogen) and dissociated using Accutase (A6964, Sigma Aldrich). This was followed by centrifuging (1200 rpm, 5 min) and resuspending the cells in 10 ml of media containing 1% penicillin/streptomycin (15140-122, Invitrogen). Cells were counted by trypan blue exclusion method using an automated cell counter (Cellometer) and diluted to a concentration of 40,000/ml. 1000 cells were then seeded into 384-well white-walled plates (Corning, 3707) in a volume of 25 μl. Plates were Incubated overnight at 37° C. with 5% CO2.
After 24 hours, PAICS compounds were added onto the assay plates using an HP D300 Digital Dispenser (Hewlett Packard). 10 mM stocks were used and dispensed as a 10 point concentration response curve (CRC) ½ log dilution series with a final top concentration of 100 μM. Controls were added onto each plate: positive controls included Staurosporine CRC (100 μM stock dispensed as a 10 point CRC ½ log dilution series with a final top concentration of 1 μM) and PAICS compound MRT00211919 (10 mM stock dispensed as a 10 point CRC ½ log dilution series with a final top concentration of 100 μM); a high control of Staurosporine (0.1 μM (LM2), 0.316 μM (MDA-MB-231) FAC) and a low control of media containing 1% DMSO. A final concentration of 1% DMSO was then added across the plates for normalisation. Following compound addition, assay plates were incubated for 72 hours at 37° C. with 5% CO2.
Day 5—Cytotoxicity and Cell Viability Assays
After 72 h incubation, dead and viable cells were measured in each assay plate. Cytotoxicity was assessed through fluorescent DNA staining using the CellTox™ Green Cytotoxicity Assay kit (G8743, Promega) following the manufacturer's multiplexing protocol. Impaired cell membrane integrity results in the access of dye to stain DNA allowing quantification of dead cells. Cell viability was determined following ATP quantification using the CellTiter-Glo® Luminescent Cell Viability Assay kit (G7572, Promega) following the manufacturer's protocol. ATP released from lysed cells allowed for the generation of a signal proportional to the number of cells present in the well. All endpoint reads were performed using the PheraSTAR Plus (BMG Labtech). Data is expressed as % viable cells and % dead cells against controls (mean±SEM of duplicate curves).

Sequence of WT full length PAICS (P22234 whole entry): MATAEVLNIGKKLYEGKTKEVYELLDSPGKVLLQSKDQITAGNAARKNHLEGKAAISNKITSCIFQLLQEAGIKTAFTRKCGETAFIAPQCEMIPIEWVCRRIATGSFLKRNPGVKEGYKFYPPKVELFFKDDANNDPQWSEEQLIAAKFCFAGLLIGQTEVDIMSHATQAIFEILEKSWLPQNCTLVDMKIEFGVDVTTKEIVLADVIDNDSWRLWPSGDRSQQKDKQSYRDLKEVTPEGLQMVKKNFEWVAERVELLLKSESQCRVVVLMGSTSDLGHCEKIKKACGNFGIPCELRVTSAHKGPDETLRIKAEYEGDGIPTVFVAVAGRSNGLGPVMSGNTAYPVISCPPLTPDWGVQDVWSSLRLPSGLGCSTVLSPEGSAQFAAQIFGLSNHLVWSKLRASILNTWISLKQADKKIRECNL

Structure (SMILES) | IC50 (WT full length PAICS) [nM] | EC50 [1] [nM]
CN1CC(OC(=O)N2CCN(c3ccc(Cl)c(NC(=O)c4coc(N)n4)c3)CC2)C1 [Example 34, 1-Methylazetidin-3-yl 4-(3-{[(2-amino-1,3-oxazol-4-yl)carbonyl]amino}-4-chlorophenyl)piperazine-1-carboxylate] | 25 to 100 | 500 to 1000
Nc1nc(C(=O)Nc2cc(N3CCN(C(=O)OCCNC4CC4)CC3)ccc2Cl)co1 [Example 35, 2-(Cyclopropylamino)ethyl 4-(3-{[(2-amino-1,3-oxazol-4-yl)carbonyl]amino}-4-chlorophenyl)piperazine-1-carboxylate] | 25 to 100 | 500 to 1000
CN1CC(CN2CCN(c3ccc(Br)c(NC(=O)c4coc(N)n4)c3)CC2=O)C1 [Example 44] | 10 to 25 | 500 to 1000
CN(C)CCN1CCN(c2ccc(Br)c(NC(=O)c3coc(N)n3)c2)CC1=O [Example 45] | 10 to 25 | 250 to 500
CN(C)CCCN1CCN(c2ccc(Cl)c(NC(=O)c3coc(N)n3)c2)CC1=O [Example 46, 2-Amino-N-(2-chloro-5-{4-[3-(dimethylamino)propyl]-3-oxopiperazin-1-yl}phenyl)-1,3-oxazole-4-carboxamide] | > 100 | 500 to 1000
NCCS(=O)(=O)N1CCN(c2ccc(Cl)c(NC(=O)c3coc(N)n3)c2)CC1 [Example 53, 2-Amino-N-(5-(4-(2-aminoethylsulfonyl)piperazin-1-yl)-2-chlorophenyl) oxazole-4-carboxamide] | 25 to 100 | 500 to 1000
CN(C)CCS(=O)(=O)N1CCN(c2ccc(Br)c(NC(=O)c3coc(N)n3)c2)CC1 [Example 54, 2-Amino-N-[2-bromo-5-(4-{[2-(dimethylamino)ethyl]sulfonyl}piperazin-1-yl)phenyl]-1,3-oxazole-4-carboxamide] | < 10 | 100 to 250
CNCCS(=O)(=O)N1CCN(c2ccc(Cl)c(NC(=O)c3coc(N)n3)c2)CC1 [Example 56, 2-Amino-N-[2-chloro-5-(4-{[2-(methylamino)ethyl]sulfonyl}piperazin-1-yl)phenyl]-1,3-oxazole-4-carboxamide] | 10 to 25 | 250 to 500
CN(C)CCS(=O)(=O)N1CCN(c2ccc(Cl)c(NC(=O)c3coc(N)n3)c2)CC1 [Example 57, 2-Amino-N-[2-chloro-5-(4-{[2-(dimethylamino)ethyl]sulfonyl}piperazin-1-yl)phenyl]-1,3-oxazole-4-carboxamide] | 10 to 25 | 500 to 1000
Nc1nc(C(=O)Nc2cc(N3CCN(S(=O)(=O)CCNC4CC4)CC3)ccc2Cl)co1 [Example 58, 2-Amino-N-[2-chloro-5-(4-{[2-(cyclopropylamino)ethyl]sulfonyl}piperazin-1-yl)phenyl]-1,3-oxazole-4-carboxamide] | 25 to 100 | 500 to 1000
CN1CCN(CCS(=O)(=O)N2CCN(c3ccc(Cl)c(NC(=O)c4coc(N)n4)c3)CC2)CC1 [Example 59, 2-Amino-N-[2-chloro-5-(4-{[2-(4-methylpiperazin-1-yl)ethyl]sulfonyl}piperazin-1-yl)phenyl]-1,3-oxazole-4-carboxamide] | 10 to 25 | 250 to 500
CN(C)CCNCCS(=O)(=O)N1CCN(c2ccc(Cl)c(NC(=O)c3coc(N)n3)c2)CC1 [Example 60] | 10 to 25 | 250 to 500
CC(C)NCCS(=O)(=O)N1CCN(c2ccc(Cl)c(NC(=O)c3coc(N)n3)c2)CC1 [Example 61, 2-Amino-N-[2-chloro-5-(4-{[2-(propan-2-ylamino)ethyl]sulfonyl}piperazin-1-yl)phenyl]-1,3-oxazole-4-carboxamide] | 10 to 25 | 100 to 250
CN1CCC(NCCS(=O)(=O)N2CCN(c3ccc(Cl)c(NC(=O)c4coc(N)n4)c3)CC2)CC1 [Example 62, 2-Amino-N-{2-chloro-5-[4-({2-[(1-methylpiperidin-4-yl)amino]ethyl}sulfonyl)piperazin-1-yl]phenyl}-1,3-oxazole-4-carboxamide] | 10 to 25 | 250 to 500
CC(C)NCCS(=O)(=O)N1CCN(c2ccc(Br)c(NC(=O)c3coc(N)n3)c2)CC1 [Example 63] | < 10 | < 100
